Experimental data as given in the Kinase Knowledgebase extract (Sharma et al. 2016).

Molecular target: MAPK14 (human) (UniProt Q16539)
Test: Inhibition of MAPK14 Kinase Activity

Sequence of MAPK14 (human) (Q16539 whole entry, looked up): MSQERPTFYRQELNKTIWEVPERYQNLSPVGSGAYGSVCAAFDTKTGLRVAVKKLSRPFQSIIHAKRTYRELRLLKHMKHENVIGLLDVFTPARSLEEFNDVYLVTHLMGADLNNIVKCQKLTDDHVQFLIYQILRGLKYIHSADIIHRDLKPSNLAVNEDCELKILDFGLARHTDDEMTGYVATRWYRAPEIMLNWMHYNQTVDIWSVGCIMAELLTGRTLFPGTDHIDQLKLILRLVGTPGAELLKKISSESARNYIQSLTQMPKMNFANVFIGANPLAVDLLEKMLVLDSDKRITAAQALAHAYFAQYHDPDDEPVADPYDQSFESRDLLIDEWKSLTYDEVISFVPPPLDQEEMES

| IC50 [µM] | Structure (SMILES) |
| --- | --- |
| ≤ 5 | CC(C)Cn1c(N)nc2ccc(-c3[nH]c(-c4ccc(Cl)cc4)nc3-c3ccc(F)cc3)cc21 |
| ≤ 5 | CC(C)Cn1c(N)nc2ccc(-c3[nH]c(-c4c(F)cccc4F)nc3-c3ccccc3)cc21 |
| ≤ 5 | CC(C)(C)Cn1c(N)nc2ccc(-c3[nH]c(-c4c(F)cccc4Cl)nc3-c3ccc(F)cc3F)cc21 |
| ≤ 5 | Cn1c(N)nc2ccc(-c3[nH]c(-c4c(F)cccc4F)nc3-c3ccccc3)cc21 |
| ≤ 5 | C[C@H](n1c(N)nc2ccc(-c3[nH]c(-c4c(F)cccc4F)nc3-c3ccccc3)cc21)C(C)(C)C |
| ≤ 5 | Nc1nc2ccc(-c3nc(-c4c(F)cccc4F)[nH]c3-c3ccc(F)cc3F)cc2n1CC1CC1 |
| ≤ 5 | CC(C)Cn1c(N)nc2ccc(-c3[nH]c(-c4ccccc4C(F)(F)F)nc3-c3ccccc3)cc21 |
| ≤ 5 | CC(C)(C)c1nc(-c2ccc3nc(N)n(CC4CC4)c3c2)c(-c2ccc(F)cc2F)[nH]1 |
| ≤ 5 | CCn1c(N)nc2ccc(-c3[nH]c(-c4c(F)cccc4F)nc3-c3ccccc3)cc21 |
| ≤ 5 | Nc1nc2ccc(-c3[nH]c(-c4c(F)cccc4F)nc3-c3ccccc3)cc2n1C1CCCC1 |
| ≤ 5 | CC(C)(C)Cn1c(N)nc2ccc(-c3nc(-c4c(Cl)cccc4Cl)[nH]c3-c3ccc(F)cc3F)cc21 |
| ≤ 5 | Nc1nc2ccc(-c3nc(C4CC4)[nH]c3-c3ccc(F)cc3F)cc2n1CC1CC1 |
| ≤ 5 | CC(C)Cn1c(N)nc2ccc(-c3nc(-c4c(C(F)(F)F)cccc4C(F)(F)F)[nH]c3-c3ccccc3)cc21 |
| ≤ 5 | CC(C)(C)Cn1c(N)nc2ccc(-c3[nH]c(C(C)(C)C)nc3-c3ccc(F)cc3F)cc21 |
| ≤ 5 | CC(C)Cn1c(N)nc2ccc(-c3nc(-c4c(F)cccc4Cl)[nH]c3-c3ccc(F)cc3)cc21 |
| ≤ 5 | CC(C)Cn1c(N)nc2ccc(-c3[nH]c(-c4c(F)cccc4C(F)(F)F)nc3-c3ccccc3)cc21 |
| ≤ 5 | CC(C)(C)Cn1c(N)nc2ccc(-c3[nH]c(-c4c(F)cccc4Cl)nc3-c3ccccc3)cc21 |
| ≤ 5 | CC(C)Cn1c(N)nc2ccc(-c3[nH]c(-c4c(F)cccc4Cl)nc3-c3ccc(F)cc3F)cc21 |
| ≤ 5 | CC(C)Cn1c(N)nc2ccc(-c3[nH]c(C4CC4)nc3-c3ccc(F)cc3)cc21 |
| ≤ 5 | C[C@@H](n1c(N)nc2ccc(-c3[nH]c(-c4c(F)cccc4F)nc3-c3ccccc3)cc21)C(C)(C)C |
| ≤ 5 | Nc1nc2ccc(-c3nc(-c4ccc(F)cc4F)[nH]c3-c3c(F)cccc3C(F)(F)F)cc2n1CC1CC1 |
| ≤ 5 | CCCCn1c(N)nc2ccc(-c3[nH]c(-c4c(F)cccc4F)nc3-c3ccccc3)cc21 |
| ≤ 5 | CC(C)Cn1c(N)nc2ccc(-c3[nH]c(C4CC4)nc3-c3ccc(F)cc3F)cc21 |
| ≤ 5 | CC(C)Cn1c(N)nc2ccc(-c3[nH]c(-c4ccccc4C(F)(F)F)nc3-c3ccc(F)cc3)cc21 |
| ≤ 5 | CC(C)n1c(N)nc2ccc(-c3[nH]c(-c4c(F)cccc4F)nc3-c3ccccc3)cc21 |
| ≤ 5 | CC(C)Cn1c(N)nc2ccc(-c3nc(-c4c(Cl)cccc4Cl)[nH]c3-c3ccc(F)cc3)cc21 |
| ≤ 5 | CCC(CC)n1c(N)nc2ccc(-c3[nH]c(-c4c(F)cccc4F)nc3-c3ccccc3)cc21 |
| ≤ 5 | Cc1nc(-c2ccc(F)cc2F)c(-c2ccc3nc(N)n(CC(C)C)c3c2)[nH]1 |
| ≤ 5 | Nc1nc2ccc(-c3[nH]c(-c4c(F)cccc4F)nc3-c3ccccc3)cc2n1Cc1cccc(F)c1 |
| ≤ 5 | CCCn1c(N)nc2ccc(-c3[nH]c(-c4c(F)cccc4F)nc3-c3ccccc3)cc21 |

Continued, compound first:

| Structure (SMILES) | IC50 [µM] |
| --- | --- |
| C[C@@H](n1c(N)nc2ccc(-c3[nH]c(-c4c(Cl)cccc4Cl)nc3-c3ccccc3)cc21)C(C)(C)C | ≤ 5 |
| CC(C)n1c(N)nc2ccc(-c3[nH]c(-c4ccccc4)nc3-c3ccccc3)cc21 | ≤ 5 |
| CC(C)Cn1c(N)nc2ccc(-c3nc(-c4c(Cl)cccc4Cl)[nH]c3-c3ccccc3)cc21 | ≤ 5 |
| CC(C)Cn1c(N)nc2ccc(-c3c(-c4ccccc4)ncn3C3CCCCC3)cc21 | ≤ 5 |
| CC(C)Cn1c(N)nc2ccc(-c3[nH]c(C(C)(C)C)nc3-c3ccccc3)cc21 | ≤ 5 |
| CC(C)Cn1c(N)nc2ccc(-c3c(-c4ccccc4)nc(C4CC4)n3C)cc21 | ≤ 5 |
| CC(C)Cn1c(N)nc2ccc(-c3c(-c4ccc(F)cc4)ncn3C)cc21 | ≤ 5 |
| CC(C)Cn1c(N)nc2ccc(-c3[nH]c(C4CC4)nc3-c3ccccc3)cc21 | ≤ 5 |
| Cc1nc2ccc(-c3cn[nH]c3-c3ccc(F)cc3)cc2n1CC(C)C | ≤ 5 |
| CC(C)Cn1c(N)nc2ccc(-c3[nH]c(-c4c(F)cc(OCCN5CCCC5)cc4F)nc3-c3ccccc3)cc21 | ≤ 5 |
| C[C@@H](n1c(N)nc2ccc(-c3[nH]c(C(C)(C)C)nc3-c3ccccc3)cc21)C(C)(C)C | ≤ 5 |
| CC(C)Cn1c(N)nc2ccc(-c3c(-c4ccccc4)ncn3C)cc21 | ≤ 5 |
| C[C@H](n1c(N)nc2ccc(-c3[nH]c(-c4c(F)cccc4Cl)nc3-c3ccccc3)cc21)C(C)(C)C | ≤ 5 |
| Clc1ccc(-c2nc(-c3ccccc3)c(-c3ccc4ncn(CC5CC5)c4c3)[nH]2)cc1 | ≤ 5 |
| CCn1cnc2ccc(-c3[nH]c(-c4c(F)cccc4F)nc3-c3ccccc3)cc21 | ≤ 5 |
| CC(C)Cn1c(N)nc2ccc(-c3c(-c4ccccc4)nc(-c4ccc(Cl)cc4)n3C)cc21 | ≤ 5 |
| Cc1nc2ccc(-c3c(-c4ccccc4)ncn3C3CCCCC3)cc2n1CC(C)C | ≤ 5 |
| CC(C)Cn1c(N)nc2ccc(-c3cn(C)nc3-c3ccccc3)cc21 | ≤ 5 |

| Structure (SMILES) | IC50 [µM] |
| --- | --- |
| C[C@@H](n1c(N)nc2ccc(-c3[nH]c(-c4c(F)cccc4Cl)nc3-c3ccccc3)cc21)C(C)(C)C | ≤ 5 |
| CC(C)Cn1c(N)nc2ccc(-c3[nH]c(C(F)(F)F)nc3-c3ccccc3)cc21 | ≤ 5 |
| CC(C)Cn1c(N)nc2ccc(-c3c(-c4ccc(F)cc4)nc4n3CCC4)cc21 | ≤ 5 |
| C[C@H](n1c(N)nc2ccc(-c3[nH]c(C(C)(C)C)nc3-c3ccccc3)cc21)C(C)(C)C | ≤ 5 |
| CC(C)Cn1c(N)nc2ccc(-c3cn(-c4ccccc4F)nc3-c3ccccc3)cc21 | ≤ 5 |
| c1ccc(-c2nc(-c3ccc(OCCN4CCCCC4)cc3)[nH]c2-c2ccc3ncn(CC4CC4)c3c2)cc1 | ≤ 5 |
| Cc1onc(-c2ccccc2)c1-c1ccc2nc(N)n(S(=O)(=O)C(C)C)c2c1 | ≤ 5 |
| CC(C)Cn1c(N)nc2ccc(-c3cn(C)nc3-c3ccc(F)cc3)cc21 | ≤ 5 |
| Cc1ccsc1-c1nc(-c2ccc3nc(N)n(CC(C)C)c3c2)c(-c2ccccc2)[nH]1 | ≤ 5 |
| Cc1nc(-c2ccc(F)cc2F)c(-c2ccc3ncn(CC(C)C)c3c2)[nH]1 | ≤ 5 |
| CC(C)(C)Cn1c(N)nc2ccc(-c3[nH]c(C4CC4)nc3-c3ccccc3)cc21 | ≤ 5 |
| CC(C)Cn1c(N)nc2ccc(-c3c(-c4ccccc4)nc4ccccn34)cc21 | ≤ 5 |
| CC(C)Cn1c(N)nc2cc(-c3[nH]c(-c4c(F)cccc4Cl)nc3-c3ccccc3)ccc21 | ≤ 5 |
| CC(C)Cn1c(N)nc2ccc(-n3ccnc3-c3ccccc3)cc21 | ≤ 5 |
| Cn1cnc2ccc(-c3[nH]c(-c4c(F)cccc4F)nc3-c3ccccc3)cc21 | ≤ 5 |
| CC(C)Cn1c(N)nc2ccc(-c3n[nH]nc3-c3ccc(F)cc3)cc21 | ≤ 5 |
| CC(C)Cn1c(N)nc2ccc(-c3n[nH]nc3-c3ccccc3)cc21 | ≤ 5 |
| Cc1nc(-c2ccccc2)c(-c2ccc3nc(N)n(CC(C)C)c3c2)[nH]1 | ≤ 5 |
